Holding throughout (experiment): relative viability (nuclei count vs DMSO), 5 days (fraction); higher = more cells survive
Compound in one test: C=CC(=O)N1CCC[C@@H](n2nc(-c3ccc(Oc4ccccc4)cc3)c3c(N)ncnc32)C1 [Ibrutinib]
A digest of the protocol: (§1)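 Lung cancer cell lines in 1536-well plates were kept overnight at 37 °C, then pinned with five library-drug doses (not always all listed) spaced by √10 on vehicle-anchored plates. After 5 days without medium change, cells were fixed, permeabilised and Hoechst-stained in one step, imaged at 4×, and nuclei were counted with MetaXpress. Viability is treated-well nuclei divided by vehicle-well nuclei, taken as the median over plates. Plates passed only with control CV below 25% and at least one doubling.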

Compound in the next test: C=CC(=O)Nc1cc(-n2c(=O)ccc3cnc4ccc(-c5ccc(NS(C)(=O)=O)cc5)cc4c32)ccc1C [BMX-IN-1]
The procedure, abridged:
as §1

Compound in a further test: C=CCc1cccc(/C=N/NC(=O)CN2CCN(Cc3ccccc3)CC2)c1O [PAC-1]
The procedure, abridged: as §1

Compound in the test “Ibrutinib + Dasatinib”: C=CC(=O)N1CCC[C@@H](n2nc(-c3ccc(Oc4ccccc4)cc3)c3c(N)ncnc32)C1 [Ibrutinib] + Cc1nc(Nc2ncc(C(=O)Nc3c(C)cccc3Cl)s2)cc(N2CCN(CCO)CC2)n1 [Dasatinib] (partner 0.075 µM)
A digest of the protocol: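 Nuclei were stained with Hoechst during a one-step fixation (final 0.05% Triton X-100, 1% formaldehyde, 1 ug/ml Hoechst) carried out 5 days after dosing, then counted on 4× images. The cells, lung cancer lines in 1536-well plates, had been dosed by pin tool the day after seeding with one drug alone or a fixed anchor-drug dose plus five library-drug doses (not always all listed) in √10 steps. Relative viability is the nuclei count in treated wells divided by that in vehicle wells, and each value is the median of duplicate plates.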

For the cell line SK-MES-1, the relative viability in the test with Ibrutinib (0.01581 µM) is 0.989; with Ibrutinib (0.05 µM), 0.888; with Ibrutinib (0.1581 µM), 1.02; in the test with Ibrutinib (0.5 µM), 0.543; with BMX-IN-1 (0.02 µM), 1.1; in the test with BMX-IN-1 (0.2 µM), 1.1. Further, the relative viability in the test with BMX-IN-1 (0.6325 µM) was 1.11; in the test with BMX-IN-1 (2 µM), 0.998; in the test with PAC-1 (0.02 µM), 0.974; in the test with PAC-1 (0.06325 µM), 0.987; with PAC-1 (0.2 µM), 0.94; in the test with PAC-1 (2 µM) it was 1.02. In addition, the relative viability turned out to be 0.281 with Ibrutinib + Dasatinib (first compound 0.005 µM); 0.211 in the test with Ibrutinib + Dasatinib (first compound 0.01581 µM); 0.194 with Ibrutinib + Dasatinib (first compound 0.05 µM); 0.38 in the test with Ibrutinib + Dasatinib (first compound 0.1581 µM); 0.178 with Ibrutinib + Dasatinib (first compound 0.5 µM).
